This assay deals with Osteoclast. Briefly: Induction of morphological changes in mouse Osteoclast cells incubated for 24 hrs by TRAP staining based fluorescence microscopy analysis. It is filed as functional.

Numbered stars: 1 amine (or outer) side, 2 acyl side, 3 side chain; on linkers, the order of the positions; unused ones are H or OH. Square brackets hold non-standard residues; d marks the D form. Peptide text beside a SMILES is read from it. X1 = O=C([C@@H](C[C@H]1CO1)O[*:1])[*:2]; NMeI = CC[C@H](C)[C@H](NC)C(=O)O; NMeβAla = CN(CCC(=O)[*:2])[*:1]; NMeV = CN[C@H](C(=O)O)C(C)C; NMeA = CN[C@@H](C)C(=O)O; βAla = NCCC(=O)O

Take `CC[C@H](C)[C@@H]1NC(=O)[C@@H]2CCCN2C(=O)[C@@H](C[C@H]2CO2)OC(=O)CCNC(=O)[C@H](C)NC(=O)[C@H](C(C)C)N(C)C1=O` (cyclo(A[βAla][X1]PI[NMeV])): the Activity was more than 50 µM.

`CC[C@H](C)[C@@H]1NC(=O)[C@@H]2CCCN2C(=O)[C@@H](C[C@H]2CO2)OC(=O)CCNC(=O)[C@H](C)N(C)C(=O)[C@H](C(C)C)NC1=O` (cyclo(IV[NMeA][βAla][X1]P)) came in with an Activity of 1.6 µM.

`CC[C@H](C)[C@@H]1NC(=O)[C@@H]2CCCN2C(=O)[C@@H](C[C@H]2CO2)OC(=O)CCN(C)C(=O)[C@H](C)N(C)C(=O)[C@H](C(C)C)N(C)C1=O` (cyclo(I[NMeV][NMeA][NMeβAla][X1]P)) registered an Activity of 50 µM.

`CC[C@H](C)[C@H]1C(=O)N(C)[C@@H](C(C)C)C(=O)N(C)[C@@H](C)C(=O)NCCC(=O)O[C@H](C[C@H]2CO2)C(=O)N2CCC[C@H]2C(=O)N1C` (cyclo([NMeA][βAla][X1]P[NMeI][NMeV])) had an Activity of 12.5 µM.

Source of the values: ChEMBL document CHEMBL5550176, “Destruxin E backbone modification effects on osteoclast Morphology: Synthesis and SAR study of N-Desmethyl and N-Methyl analogs” (2024).
